Results reported in publication PMC6630718, “Discovery of Novel UV-Filters with Favorable Safety Profiles in the 5-Arylideneimidazolidine-2,4-dione Derivatives Group” (Molecules, 2019).

How the values were obtained:
[1] = Photostability in methanol solutions (solar light simulator); format: physicochemical; parameters: λmax pre-irradiation: unit not given beside the values; conditions: methanol solution; for % of initial AUC post-irradiation / λmax post-irradiation: 1h irradiation at 500 W/m2
Protocol: (§1) The photostability evaluation of compounds was performed both in methanol solutions and in macrogol formulations. Irradiation of samples according to previous studies was conducted for 1 h at 500 W/m^2 (cumulative dose of ultraviolet radiation 218 kJ/m^2) with solar light simulator (Suntest CPS+, Atlas, Linsengericht, Germany) equipped with an optical filter cutting off wavelengths shorter than 290 nm and IR-block filter to neutralize thermal effects. The UV absorption spectrum of the samples were analysed post-irradiation and compared with pre-irradiation results. UPLC-MS/MS analyses were also performed.
(§2) Methanol solutions were tested at concentration 25 or 50 µM in quartz cuvettes with the PTFE stopper to prevent evaporation or leaking of the solvent. Macrogol formulations (2% w/w) were tested on PMMA plates (1.3 mg/cm^2). After post-irradiation measure of UV absorption, exposed and unexposed plates were washed with 5 mL of methanol, then mixtures were filtered and analysed by UPLC-MS/MS. All analyses were performed in duplicates.

[2] = Photostability in macrogol formulations on PMMA plates (solar light simulator); format: physicochemical; conditions: after 1 h irradiation at 500 W/m^2, formulation F1
Protocol: After irradiation of thin layer of formulations applied on PMMA plates, their photoprotective parameters were determined and compared with the pre-irradiation results. The study gives an overview on functional photostability of the tested compounds. It is an important test, because the photostability of some compounds in low concentrated solutions may meaningfully differ from results obtained for higher concentrations used in sunscreen products. […] In the present study both UVB and UVA-absorbers were tested, so the changes in SPFin vitro, UVA PF and AUC after irradiation are taken into account as a measure of photostability.
as §1, §2

[3] = Ultraviolet spectroscopy in methanol solutions; format: physicochemical; conditions: for Absorption Range: scan range 290–400 nm
Protocol: Spectra with a scan range of 290–400 nm were recorded in 50 or 25 μM methanol solutions, in 1 cm path length, 1.5 mL quartz cuvettes on a U-2800 double beam spectrophotometer (Hitachi, Tokyo, Japan) controlled by UV Solution version 2.2 software. The molar extinction coefficient at maximum absorption (εmax) of tested compounds was determined in methanol as the slope of the linear regression of absorbance vs. concentration of tested compound (from 10 to 50 μM or 2.5 to 30 μM).

[4] = In vitro photoprotection study of 2% (w/w) macrogol formulations on PMMA plates; conditions: for UVA PF / UVA/UVB Ratio / λc (critical wavelength): 2% (w/w) macrogol formulation F1 (Triacetin 4.8%); for SPFin vitro: 2% (w/w) macrogol formulation F1 (Tween 20, PEG-400, PEG-1500, Triacetin 4.8%)
Text: The composition of formulations and concentration of tested compounds were based on their limited solubility. N-monosubstituted compounds 2a–2e were insoluble at desirable concentrations in the typical solvents used in cosmetic formulations such as alcohols, triacetin, surfactants, and co-surfactants. To dissolve compounds 2a and 2b before incorporation to the formulation DMSO: Tween 20 (1:9 w/w) was used, for less soluble 2c–2e it was necessary to use DMSO alone as solvent. […] Thus the detailed composition of the formulations is as follows: F1–Tween 20 43.2%, PEG-400 25%, PEG-1500 25%, Triacetin 4.8%, tested compound 2%; F2–Tween 20 43.2%, PEG-400 25%, PEG-1500 25%, DMSO 4.8%, tested compound 2%; F3–PEG-400 25%, PEG-1500 25%, DMSO 48%, tested compound 2%. Considering the disadvantages of currently reported macrogol formulations and the low concentration achieved for the tested compounds (2%), we plan to work on cosmetic emulsions containing the most promising derivatives at higher concentrations as well as required excipients including preservatives, antioxidants, etc. This research will be carried out in the near future.
Tested compounds and commercial UV filters as reference standards were incorporated to a neutral macrogel formulation in the concentration of 2%. Prior to the incorporation, compounds 3a–3e and 4f–4h and reference UV-filters were dissolved in a triacetin:Tween 20 (1:9) solvent system. For compounds 2a–2e it was necessary to use DMSO. The final composition of the macrogol formulations is presented in the photoprotective activity section.
In vitro photoprotection study was performed according to EN ISO 24443:2012 [71] with slight modifications. Formulation with tested compound (32.5 mg) was applied on a polymethylmethacrylate plate (PMMA) with the application area 25 cm^2 and 5 µm roughness value to simulate the skin surface (Schonberg GmbH, Hamburg, Germany). As a reference a PMMA plate treated with approximately 15 µL of glycerin was used. Measurements were carried out by reflectance spectrophotometry with SPF-290AS Analyser (Solar Light Company, Glenside, PA, USA) equipped with integrating sphere controlled by WinSPF version X.X. software. For each sample two plates were prepared, absorbance measures were performed on 6 different positions of the plate from 290 to 400 nm with 1 nm steps. The results were expressed as an average of data from 12 scans.

[5] = Ames MPF Penta 2 microplate mutagenicity assay, TA1535; conditions: Salmonella typhimurium, FIB (fold induction over baseline), positive control, TA1535, –S9, 100 µg/mL
Protocol: (§3) The assay is a liquid microplate modification of the traditional Salmonella test. During the procedure, bacteria are exposed to different concentrations of a test compound for 90 min in a medium containing sufficient histidine (S. typhimurium) or tryptophan (E. coli) to support cell divisions. Then, the cultures are diluted in pH indicator medium lacking histidine or tryptophan and aliquoted into 48 wells of a 384-well plate. Within 48 hours, cells that have undergone reversion to amino acid prototrophy will grow into colonies. Bacterial metabolism reduces pH of the medium, changing the color of that well from purple to yellow (https://www.xenometrix.ch).
(§4) The following strains were used in the study: S. typhimurium TA98, TA100, TA1535, TA1537 and E. coli wp2 uvrA[pKM101]. TA100, TA1535 and E. coli strains are used for the detection of base substitution mutations, whereas TA98 and TA1537 are utilized for the detection of frameshift mutations. S. typhimurium strains have GC base pairs, whereas E. coli strain has AT base pair at their primary reversion site and detect certain oxidizing mutagens, cross-linking agents and hydrazines.
(§5) The test procedure provided by Xenometrix (https://www.xenometrix.ch) and described earlier was followed. Briefly, the bacterial strains were grown overnight in exposure medium and exposed to test compounds 4g and 3b in 24-well plates for 90 min at 37 °C with agitation in the absence (–S9) or presence (+S9) of 4.5% phenobarbital/ β-naphthoflavone-induced rat liver S9. Compounds 4g and 3b were dissolved in DMSO and tested at final concentrations of 0.1, 0.2 and 0.5 mM. After the preincubation, the cultures were diluted in the indicator medium and the contents of each 24-well culture were distributed into 48 wells on a 384-well plate and incubated further for 48 h at 37 °C without agitation. After the exposure, the number of wells containing bacteria was scored by eye for yellow wells. Positive and negative controls were included in the assay, and all doses were done in triplicate.
(§6) Pure DMSO was used as the negative control.
(§7) The fold increase of revertants relative to the solvent control was determined by dividing the mean number of positive wells at each dose by the solvent control at baseline. The solvent control at baseline was defined as the mean number of positive wells in the solvent control plus one standard deviation (SD). When an increase of more than 2-fold relative to the baseline at more than one dose with a dose–response is observed the sample is classified as positive, whereas when no response >2 times the baseline and no dose–response is stated the sample is negative.

in vitro = conditions: Salmonella typhimurium
Protocol: as §3, §4, §5, §6, §7

[6] = Ames MPF Penta 2 microplate mutagenicity assay, TA98; format: cell-based; conditions: Salmonella typhimurium, read-out: FIB (fold induction over baseline), positive control
Protocol: as §3, §4, §5, §6, §7

[7] = In vitro stability in mouse liver microsomes; format: in vitro ADME; conditions: mouse liver microsomes
Protocol: Mouse liver microsomes (MLMs) were used to investigate the phase I metabolism of selected compounds (2c, 2d, 3b, 4g, 5a) and the reference substance BP-2. Samples composed of test compound (20 µM), MLMs (0.8 mg/mL) and potassium phosphate buffer (100 mM, pH 7.4) were preincubated prior to addition of NADPH-regenerating system. NADPH-regenerating system contained NADP, glucose-6-phosphate, glucose-6-phosphate dehydrogenase and potassium phosphate buffer (100 mM, pH 7.4). Control incubations were performed in the absence of the NADPH-regenerating system and in case of esters (2c, 2d, 3b and 4g) without the mouse liver microsomes solution to determine spontaneous hydrolysis. Incubations were conducted at 37 °C for at least 15 min up to 60 min. The reactions were stopped by the addition of 250 μL ice-cold methanol containing internal standard PTX (20 μM). The mixture was then centrifuged. Supernatant analysis was performed using UPLC/MS (Waters Corporation). The assays were repeated two times. The in vitro half times (t1/2) for test compounds were determined from the slope of the linear regression of ln % parent compound remaining versus incubation time. The calculated t1/2 was incorporated into the following equation to obtain intrinsic clearance: (Clint) = (volume of incubation [µL]/ protein in the incubation [mg]) × 0.693 / t1/2 [74].

[8] = Ames MPF Penta 2 microplate mutagenicity assay, TA100; format: cell-based; conditions: Salmonella typhimurium; TA100, +S9, 1.25 µg/mL; read-out: FIB (fold induction over baseline), positive control
Protocol: as §3, §4, §5, §6, §7

| SMILES | λmax pre-irradiation [1] | % of initial AUC post-irradiation [1] [%] | λmax post-irradiation [1] | εmax [3] [M⁻¹ cm⁻¹] | λmax [3] [nm] | Absorption Range [3] | UVA PF [4] | UVA/UVB Ratio [4] | λc (critical wavelength) [4] [nm] | SPFin vitro [4] | also measured |
| --- | --- | --- | --- | --- | --- | --- | --- | --- | --- | --- | --- |
| CCCCC(CC)COC(=O)C=Cc1ccc(OC)cc1 (centres unmarked) [EHMC, ethylhexyl methoxycinnamate, reference compound] | 309 | 63.26 | 307 | 22990 | 309 | 290–339 nm | 1.34 ± 0.05 | 0.05 ± 0.01 | 321 | 4.96 ± 0.33 | decrease of AUC after irradiation [1]: 36.7%; % of Initial AUC [2]: 78.45%; % of Initial SPFin vitro [2]: 80.83%; % of Initial UVA PF [2]: 88.76% |
| CCOC(=O)CN1C(=O)/C(=C/c2ccc(OC)c(OC)c2)N(CC(=O)OCC)C1=O [Compound 3e, Diethyl 2,2′-((Z)-4-(3,4-dimethoxybenzylidene)-2,5-dioxoimidazolidine-1,3-diyl)diacetate] | 329 | 129.32 | 340 | 14200 | 329 | 290–380 nm | 2.17 ± 0.11 | 1.43 ± 0.02 | 382 | 1.87 ± 0.08 | % of Initial AUC [2]: 79.59%; % of Initial SPFin vitro [2]: 81.28%; % of Initial UVA PF [2]: 87.10%; melting point: 80 to 82 °C |
| CCCCC(CC)COC(=O)C(C#N)=C(c1ccccc1)c1ccccc1 (centres unmarked) [Octocrylene, octocrylene, reference compound] |  |  |  | 13650 | 302 | 290–349 nm | 1.20 ± 0.03 | 0.12 ± 0.01 | 327 | 2.87 ± 0.16 |  |
| NNc1ccn([C@@H]2O[C@H](CO)[C@@H](O)[C@H]2O)c(=O)n1 [Compound N4-ACT, N4-aminocytidine, reference compound] |  |  |  |  |  |  |  |  |  |  | fold induction at 90 min, 100 µg/mL [5]: 40 |
| Nc1c2ccccc2nc2ccccc12 [Compound 9-AAc, 9-aminoacridine, reference compound] |  |  |  |  |  |  |  |  |  |  | fold induction at 90 min, 15 µg/mL (in vitro): 48 |
| COc1ccc(C(=O)CC(=O)c2ccc(C(C)(C)C)cc2)cc1 [Avobenzone, butyl methoxy-dibenzoylmethane, reference compound] |  |  |  | 36820 | 358 | 290–393 nm | 7.56 ± 0.19 | 2.49 ± 0.03 | 381 | 2.23 ± 0.03 |  |
| O=[N+]([O-])c1ccc2c(c1)Cc1ccccc1-2 [Compound 2-NF, 2-nitrofluorene, reference compound] |  |  |  |  |  |  |  |  |  |  | fold induction at 90 min, 2 µg/mL ([6]; S. typhimurium TA98 without S9 (–S9), TA98, –S9, 2 µg/mL): 25.3 |
| COc1ccc(/C=C2\NC(=O)NC2=O)cc1OC [Compound 1e, (Z)-5-(3,4-Dimethoxybenzylidene)imidazolidine-2,4-dione] | 341 | 95.38 | 346 | 28440 | 341 | 290–384 nm |  |  |  |  | Probable Transformation [7]: O-dealkylation; half-life at 20 µM ([7]; mouse, pH 7.4, mouse liver microsomes 0.8 mg/mL, 20 µM compound, NADPH-regenerating system, 37 °C, read-out: t ½): 1.02 h; microsomal CLint at 20 µM ([7]; mouse, pH 7.4, mouse liver microsomes, calculated from t1/2): 14 µL/min/mg |
| Nc1ccc2cc3ccccc3cc2c1 [Compound 2-AA, 2-aminoanthracene, reference compound] |  |  |  |  |  |  |  |  |  |  | fold induction at 90 min, 1.25 µg/mL [8]: 3.1; fold induction at 90 min, 0.5 µg/mL ([6]; TA98, +S9, 0.5 µg/mL): 12.6 |
